In the test the target is HIV protease (Human immunodeficiency virus type 1 group M subtype B, UniProt P04585). Put plainly: Enzymatic (FRET fluorometric) assay for determining the inhibition constant (Ki) of compounds targeting the HIV protease. The test is classed as biochemical. The note with it: FRET substrate (EDANS/DABCYL), equation of Henderson; read-out: Ki. From the text:
Enzymatic Assay for Determining the Inhibition Constant (Ki) of Synthetic Compounds Targeting the HIV Protease
This is a fluorometric assay based on the cleavage by protease of a substrate carrying a donor group (EDANS) and an acceptor group (DABCYL) on each side of the cleavage site, interacting together through fluorescence resonance energy transfer (FRET) as described by Matayoshi et al. (Science 247:[…], 1990).
After calculation of Vo and Vi, the inhibition constant (Ki) of the compound is determined using the equation of Henderson: [formula]
where Vo=the enzyme's initial velocity
Vi=the enzyme velocity in the presence of the inhibitory compound,
[I]=inhibitor concentration, [S]=substrate concentration,
Km=Michaelis-Menten constant and Kiapp=apparent Ki
Graphs are traced and the Ki determined using GraphPad Prism software v. 3.0.
The term Ki denotes the dissociation constant of the complex between target and ligand, obtained from inhibition or displacement. Regarding `Cc1ccc(S(=O)(=O)N(CC(C)C)[C@@H](CCCCNC(=O)N(Cc2ccccc2)Cc2ccccc2N)C(=O)O)cc1` [Example 57, Nα-Isobutyl-Nα-(4-methylbenzenesulfonyl)-Nε-[N′-(2-ninobenzyl)-N′-benzylaminocarbonyl]-L-lysine], the inhibition constant Ki is 1.7 nM.
The value for `Cc1ccc(S(=O)(=O)N(CC(C)C)[C@H](CO)CCCCNC(=O)N(Cc2ccccc2)Cc2ccccc2N)cc1` [Example 62, (2S) 2-N-Isobutyl-2-N-(4-methylbenzenesulfonyl)-6-N-[N′-(2-aminobenzyl)-N′-benzylaminocarbonyl]-2,6-diaminohexanol] was 39 nM; that for `Cc1ccc(S(=O)(=O)N(CC(C)C)[C@H](CO)CCCCNC(=O)N(Cc2ccccc2)Cc2cccc(N)c2)cc1` [Example 63, (2S) 2-N-Isobutyl-2-N-(4-methylbenzenesulfonyl)-6-N-[N′-(3-aminobenzyl)-N′-benzylaminocarbonyl]-2,6-diaminohexanol] was 54 nM.
Then `Cc1ccc(S(=O)(=O)N(CC(C)C)[C@H](CO)CCCCNC(=O)N(Cc2ccccc2)Cc2ccc(N)cc2)cc1` [Example 64, (2S) 2-N-Isobutyl-2-N-(4-methylbenzenesulfonyl)-6-N-[N′-(4-aminobenzyl)-N′-benzylaminocarbonyl]-2,6-diaminohexanol], with 21 nM; and `CC(C)CN([C@H](CO)CCCCNC(=O)N[C@@H](Cc1c[nH]c2ccccc12)C(=O)O)S(=O)(=O)c1ccc(N)cc1` [Example 65, (2S,2′S) 2-N-(4-Aminobenzenesulfonyl)-2-N-isobutyl-6-N-(S-tryptophanyl-N′-carbonyl)-2,6-diaminohexanol], with over 300 nM; and `CC(C)CN([C@H](CO)CCCCNC(=O)N(Cc1ccc(F)cc1)C1CCCCC1)S(=O)(=O)c1ccc(N)cc1` [Example 66, (2S) 2-N-(4-Aminobenzenesulfonyl)-2-N-isobutyl-6-N-[N′-cyclohexyl-N′-(4-fluorobenzyl)aminocarbonyl]-2,6-diaminohexanol], with 175 nM.
The value for `CC(C)CN([C@H](CO)CCCCNC(=O)N(Cc1ccccc1)Cc1ccc(F)cc1)S(=O)(=O)c1ccc(N)cc1` [Example 68, (2S) 2-N-(4-Aminobenzenesulfonyl)-2-N-isobutyl-6-N-[N′-benzyl-N′-(4-fluorobenzyl)aminocarbonyl]-2,6-diaminohexanol] was 3.3 nM; that for `CC(C)CN([C@H](CO)CCCCNC(=O)N(CCc1cccs1)Cc1ccc(F)cc1)S(=O)(=O)c1ccc(N)cc1` [Example 69, (2S) 2-N-(4-Aminobenzenesulfonyl)-2-N-isobutyl-6-N-[N′-(4-fluorobenzyl)-N′-(2-thiophenethyl)aminocarbonyl]-2,6-diaminohexanol] was 34 nM; that for `CC(C)CN([C@H](CO)CCCCNC(=O)N(Cc1ccc(F)cc1)Cc1cccnc1)S(=O)(=O)c1ccc(N)cc1` [Example 70, (2S) 2-N-(4-Aminobenzenesulfonyl)-2-N-isobutyl-6-N-[N′-(4-fluorobenzyl)-N′-(3-picolyl)aminocarbonyl]-2,6-diaminohexanol] was 30 nM.
On to `CC(C)CN([C@H](CO)CCCCNC(=O)N(Cc1cccc(F)c1)C1CCCCC1)S(=O)(=O)c1ccc(N)cc1` [Example 71, (2S) 2-N-(4-Aminobenzenesulfonyl)-2-N-isobutyl-6-N-[N′-cyclohexyl-N′-(3-fluorobenzyl)aminocarbonyl]-2,6-diaminohexanol], for which the Ki was 235 nM.
Then `CC(C)CN([C@H](CO)CCCCNC(=O)NCc1ccc2c(c1)OCO2)S(=O)(=O)c1ccc(N)cc1` [Example 74, (2S) 2-N-(4-Aminobenzenesulfonyl)-2-N-isobutyl-6-N-piperonylaminocarbonyl-2,6-diaminohexanol], with 22 nM; and `CC(C)CN([C@H](CO)CCCCNC(=O)N(Cc1ccc2c(c1)OCO2)Cc1cccs1)S(=O)(=O)c1ccc(N)cc1` [Example 75, (2S) 2-N-(4-Aminobenzenesulfonyl)-2-N-isobutyl-6-N-[N′-(2-thiophenemethyl)-N′-piperonylaminocarbonyl]-2,6-diaminohexanol], with 2 nM; and `CC(C)CN([C@H](CO)CCCCNC(=O)N(Cc1ccsc1)Cc1ccc2c(c1)OCO2)S(=O)(=O)c1ccc(N)cc1` [Example 81, (2S) 2-N-(4-Aminobenzenesulfonyl)-2-N-isobutyl-6-N-[N′-(3-thiophenemethyl)-N′-piperonylaminocarbonyl]-2,6-diaminohexanol], with 6.3 nM.
Then `COc1ccc(CN(Cc2ccc3c(c2)OCO3)C(=O)NCCCC[C@@H](CO)N(CC(C)C)S(=O)(=O)c2ccc(N)cc2)cc1` [Example 83, (2S) 2-N-(4-Aminobenzenesulfonyl)-2-N-isobutyl-6-N-[N′-(4-methoxybenzyl)-N′-piperonylaminocarbonyl]-2,6-diaminohexanol], with 2.2 nM.
Then `CC(C)CN([C@H](CO)CCCCNC(=O)N(Cc1ccc([N+](=O)[O-])cc1)Cc1ccc2c(c1)OCO2)S(=O)(=O)c1ccc(N)cc1` [Example 84, (2S) 2-N-(4-Aminobenzenesulfonyl)-2-N-isobutyl-6-N-[N′-(4-nitrobenzyl)-N′-piperonylaminocarbonyl]-2,6-diaminohexanol], with 2 nM; and `CC(C)CCN([C@H](CO)CCCCNC(=O)N(Cc1ccc([N+](=O)[O-])cc1)Cc1ccc2c(c1)OCO2)S(=O)(=O)c1ccc(N)cc1` [Example 89, (2S) 2-N-(4-Aminobenzenesulfonyl)-2-N-(3-methylbutyl)-6-N-[N′-(4-nitrobenzyl)-N′-piperonylaminocarbonyl]-2,6-diaminohexanol], with 2.2 nM.
For `CC(C)CN([C@H](CO)CCCCNC(=O)N(Cc1ccc(C(F)(F)F)cc1)Cc1cccc2c1OCO2)S(=O)(=O)c1ccc(N)cc1` [Example 90, (2S) 2-N-(4-Aminobenzenesulfonyl)-2-N-isobutyl-6-N-[N′-(4-trifluoromethylbenzyl)-N′-(2,3-methylenedioxy)benzylaminocarbonyl]-2,6-diaminohexanol], the Ki turned out to be 8.9 nM.
The value for `CC(C)CN([C@H](CO)CCCCNC(=O)N(Cc1ccc(C(F)(F)F)cc1)Cc1ccc2c(c1)OCO2)S(=O)(=O)c1ccc(N)cc1` [Example 92, (2S) 2-N-(4-Aminobenzenesulfonyl)-2-N-isobutyl-6-N-[N′-(4-trifluoromethylbenzyl)-N′-piperonylaminocarbonyl]-2,6-diaminohexanol] was 2.5 nM; that for `CC(C)CCN([C@H](CO)CCCCNC(=O)N(Cc1ccc(C(F)(F)F)cc1)Cc1ccc2c(c1)OCO2)S(=O)(=O)c1ccc(N)cc1` [Example 94, (2S) 2-N-(4-Aminobenzenesulfonyl)-2-N-(3-methylbutyl)-6-N-[N′-(4-trifluoromethylbenzyl)-N′-piperonylaminocarbonyl]-2,6-diaminohexanol] was 3 nM.
The value for `CCC(C)CN(C(CO)CCCCNC(=O)N(Cc1ccccc1)Cc1cccc2c1OCO2)S(=O)(=O)c1ccc(N)cc1` [Example 97, (2S) 2-N-(4-Aminobenzenesulfonyl)-2-N-(2-methylbutyl)-6-N-[N′-benzyl-N′-(2,3-methylenedioxy)benzylaminocarbonyl]-2,6-diaminohexanol] was 21 nM.
The value for `CCC(C)CN(C(CO)CCCCNC(=O)N(Cc1ccc2c(c1)OCO2)Cc1cccs1)S(=O)(=O)c1ccc(N)cc1` [Example 99, (2S) 2-N-(4-Aminobenzenesulfonyl)-2-N-(2-methylbutyl)-6-N-[N′-(2-thiophenemethyl)-N′-piperonylaminocarbonyl]-2,6-diaminohexanol] was 24 nM.

Values taken from patent US6528532B1, “Urea derivatives as HIV aspartyl protease inhibitors” (Pharmacor Inc., priority 2002, dated 2003).
